{"source": "patent US20130261241A1", "about": "“METHODS FOR CONTROLLING WATER AMOUNT IN A POLYMER COMPOSITION OR SUBSTRATE” (Bendiner Technologies, LLC, priority 2009, published 2013)", "data": [{"molecule": "C/C=C/C=C/C(=O)[O-].[K+]", "note": "[Potassium sorbate, potassium sorbate]", "values": [{"measurement": "change in zeta potential", "setting": "as potassium sorbate concentration is increased (0.0001% to 10%), no added sodium chloride", "value": "less negative"}, {"measurement": "effect on the zeta potential", "setting": "concentrations below approximately 0.01%", "value": "no effect"}]}]}
